Laboratory results as given in ChEMBL document CHEMBL1152150, “Interaction of ladder-shaped polyethers with transmembrane alpha-helix of glycophorin A as evidenced by saturation transfer difference NMR and surface plasmon resonance” (Bioorg Med Chem Lett, 2008).
Active and inactive are the calls of the source. The calls are words filed in the database; no cut-off is given here.

Experiments:
Glycophorin-A [1] = target: T1, Glycophorin-A (Homo sapiens, UniProt P02724); assay: Binding affinity to transmembrane alpha-helix of glycophorin A by surface plasmon resonance method
[2] = Binding affinity to transmembrane alpha-helix of glycophorin A 2G/2I mutant by surface plasmon resonance method
Glycophorin-A [3] = target: T1, Glycophorin-A; assay: Binding affinity to transmembrane alpha-helix of glycophorin A by saturation transfer difference NMR

T1 sequence (P02724 whole entry): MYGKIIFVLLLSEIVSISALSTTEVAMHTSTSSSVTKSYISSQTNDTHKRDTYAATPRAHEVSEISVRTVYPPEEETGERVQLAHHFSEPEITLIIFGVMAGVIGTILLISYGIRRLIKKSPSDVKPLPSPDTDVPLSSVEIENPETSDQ

Structure (SMILES)	Kd (Glycophorin-A [1]) [µM]	Kd [2] [µM]	Activity (Glycophorin-A [3])
C=CCC(=C)/C=C/[C@@](C)(O)[C@H]1O[C@@H]2C[C@@H]3O[C@@H]4C[C@@H]5O[C@@H]6C[C@@H]7O[C@@H]8C[C@@H]9O[C@@H]%10C[C@@H]%11O[C@](C)(CCO)[C@@H](O)C[C@H]%11O[C@H]%10C[C@H]9O[C@H]8CC[C@@]7(C)O[C@@]6(C)CC[C@H](C)[C@H]5O[C@H]4C[C@@]3(C)O[C@H]2CC1=C [DESULFATED YESSOTOXIN]	270	99	
C[C@@]12CC[C@@H]3O[C@H](CO)[C@@H](O)C[C@H]3O[C@H]1C[C@H]1O[C@@H](COCc3ccccc3)[C@H](OCc3ccccc3)C[C@@H]1O2	240	150	
C=CCC(=C)/C=C/[C@@](C)(O)[C@H]1O[C@@H]2C[C@@H]3O[C@@H]4C[C@@H]5O[C@@H]6C[C@@H]7O[C@@H]8C[C@@H]9O[C@@H]%10C[C@@H]%11O[C@](C)(CCOS(=O)(=O)O)[C@@H](OS(=O)(=O)O)C[C@H]%11O[C@H]%10C[C@H]9O[C@H]8CC[C@@]7(C)O[C@@]6(C)CC[C@H](C)[C@H]5O[C@H]4C[C@@]3(C)O[C@H]2CC1=C [YESSOTOXIN]	120	85	Active
OC[C@H]1O[C@@H](COCc2ccccc2)[C@H](OCc2ccccc2)C[C@@H]1O	2400	860	
C[C@@]12CC[C@@H]3O[C@@H]4C[C@@H]5O[C@@H]6C[C@H](O)[C@@H](CO)O[C@H]6CC[C@@]5(C)O[C@H]4C[C@H]3O[C@H]1C[C@H]1O[C@@H](CCOCc3ccccc3)[C@H](OCc3ccccc3)C[C@@H]1O2	48	7.7	
